Source: patent US6211244A, “Calcium receptor-active compounds” (priority 1995, dated 2001)
Where a name gives a salt, the structure may show the parent alone. Read-outs that look alike come from different tables or passages of the source.

Target: T1, human calcium receptor (Homo sapiens, UniProt P41180, R990G)
T1 construct: expressed in transfected cells; host or cells: HEK 293
T1 sequence (P41180 20-1078 R990G): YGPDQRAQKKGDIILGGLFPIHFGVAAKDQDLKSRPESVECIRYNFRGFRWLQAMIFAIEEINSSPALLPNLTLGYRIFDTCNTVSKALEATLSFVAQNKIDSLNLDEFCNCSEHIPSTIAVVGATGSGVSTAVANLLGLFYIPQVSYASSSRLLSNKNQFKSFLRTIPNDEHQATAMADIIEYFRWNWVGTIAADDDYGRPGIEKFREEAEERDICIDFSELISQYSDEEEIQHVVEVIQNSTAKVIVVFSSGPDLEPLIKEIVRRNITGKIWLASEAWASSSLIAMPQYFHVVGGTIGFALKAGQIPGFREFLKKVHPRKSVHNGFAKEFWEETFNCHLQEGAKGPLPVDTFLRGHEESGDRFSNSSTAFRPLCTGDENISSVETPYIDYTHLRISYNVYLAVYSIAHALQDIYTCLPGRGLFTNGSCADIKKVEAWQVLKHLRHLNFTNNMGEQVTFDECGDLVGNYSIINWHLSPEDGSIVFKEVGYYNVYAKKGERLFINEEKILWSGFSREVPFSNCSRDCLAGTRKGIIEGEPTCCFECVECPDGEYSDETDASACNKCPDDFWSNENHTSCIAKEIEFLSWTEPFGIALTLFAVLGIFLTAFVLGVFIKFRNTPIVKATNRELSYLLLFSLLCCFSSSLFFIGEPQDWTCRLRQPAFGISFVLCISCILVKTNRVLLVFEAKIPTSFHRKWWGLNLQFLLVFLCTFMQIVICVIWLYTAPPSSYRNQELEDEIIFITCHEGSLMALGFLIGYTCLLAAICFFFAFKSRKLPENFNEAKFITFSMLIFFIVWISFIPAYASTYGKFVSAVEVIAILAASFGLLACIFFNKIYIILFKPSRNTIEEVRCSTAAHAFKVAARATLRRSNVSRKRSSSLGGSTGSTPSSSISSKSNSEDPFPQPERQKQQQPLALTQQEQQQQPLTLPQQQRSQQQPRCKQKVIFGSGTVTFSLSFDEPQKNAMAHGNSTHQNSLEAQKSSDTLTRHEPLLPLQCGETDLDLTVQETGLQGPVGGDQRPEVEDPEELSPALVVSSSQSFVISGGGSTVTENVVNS
Assay: increases in [Ca^2+ ]i in HEK-293 cells expressing the human calcium receptor (fura-2 loaded HEK 293/pHuPCaR4.0 cells), % activity
Format: cell-based
Settings: for activity at […]: HEK293

SMILES	% activity (33 ng/mL) [%]	% activity (330 ng/mL) [%]	% activity (3300 ng/mL) [%]	% activity	activity at […] (33 ng/mL) [%]	activity at […] (330 ng/mL) [%]
COc1cccc(C(C)NCC=Cc2ccccc2OC)c1 (centres unmarked) [Compound 8T]	55	85	–	–	–	–
COc1cccc([C@@H](C)NCCCc2ccccc2OC)c1 [Compound 8U, N-3-(2-methoxyphenyl)-1-propyl-(R)-3-methoxy-α-methylbenzylamine hydrochloride]	82	129	123	–	–	–
COc1cccc([C@@H](C)NCCCc2ccc(C)cc2)c1 [Compound 8X]	40	75	–	–	–	–
CC(N[C@H](C)c1cccc2ccccc12)c1ccc2ccccc2c1 (some centres unmarked) [Compound 8Z]	97	101	–	–	–	–
C[C@@H](N[C@H](C)c1cccc2ccccc12)c1ccc2ccccc2c1.Cl [Compound 9R, (R)-N-(1-(2-naphthyl)ethyl)-(R)-1-(1-naphthyl)ethylamine hydrochloride]	101	108	–	–	–	–
CC(NCc1ccc(-c2ccccc2)cc1)c1cccc2ccccc12 (centres unmarked) [Compound 10N]	77	97	106	–	–	–
COc1cccc(C(C)NCc2ccc3ccccc3c2)c1 (centres unmarked) [Compound 10P]	74	102	–	–	–	–
CC(NC(C)c1cccc2ccccc12)c1ccc2c(c1)-c1ccccc1-2 (centres unmarked) [Compound 10Q]	84	100	103	–	–	–
CC(NC(C)c1cccc2ccccc12)c1ccc2c(c1)-c1ccccc1-2 (centres unmarked) [Compound 10R]	42	82	–	–	–	–
CC(NC1CC1c1ccccc1)c1cccc2ccccc12 (centres unmarked) [Compound 10V]	62	99	–	–	–	–
C=CCOc1cccc([C@@H](C)NCc2ccc3ccccc3c2)c1 [Compound 10Z]	51	96	–	–	–	–
CCOC(=O)COc1cccc([C@@H](C)NCc2ccc3ccccc3c2)c1 [Compound 11D]	50	96	–	–	–	–
COc1cccc([C@@H](C)NCc2cccc(OCc3ccccc3)c2)c1 [Compound 11W]	44	81	–	–	–	–
CC(C)c1ccc(CN[C@H](C)c2cccc3ccccc23)cc1.Cl [Compound 11X, N-(4-Isopropylbenzyl)-(R)-1-(1-naphthyl)ethylamine hydrochloride]	76	100	–	–	–	–
COc1cccc([C@@H](C)NCc2ccc(C(C)C)cc2)c1 [Compound 11Y]	61	103	–	–	–	–
COc1cccc([C@@H](C)NCC=Cc2ccc(C)cc2)c1 [Compound 12B, (R)-N-[3-(4-methylphenyl)prop-2-enyl]-1-(3-methoxyphenyl)ethylamine]	56	110	130	–	–	–
COc1cccc([C@@H](C)NCC=Cc2ccccc2C)c1 [Compound 12C, (R)-N-[3-(2-methylphenyl)prop-2-enyl]-1-(3-methoxyphenyl)ethylamine]	98	125	134	–	–	–
COc1cccc([C@@H](C)NCC=Cc2c(C)cc(C)cc2C)c1 [Compound 12D, (R)-N-[3-(2,4,6-trimethylphenyl)prop-2-enyl]-1-(3-methoxyphenyl)ethylamine]	52	109	128	–	–	–
COc1cccc([C@@H](C)NCC=Cc2ccc(C(C)C)cc2)c1 [Compound 12E, (R)-N-[3-(4-isopropylphenyl)prop-2-enyl]-1-(3-methoxyphenyl)ethylamine]	73	121	117	–	–	–
COc1cccc([C@@H](C)NCC=Cc2ccc(C)cc2C)c1 [Compound 12F, (R)-N-[3-(2,4-dimethylphenyl)prop-2-enyl]-1-(3-methoxyphenyl)ethylamine]	101	110	118	–	–	–
COc1cccc([C@@H](C)NCC=Cc2cccc(C)c2)c1 [Compound 12G, (R)-N-[3-(3-methylphenyl)prop-2-enyl]-1-(3-methoxyphenyl)ethylamine]	81	139	139	–	–	–
COc1cccc([C@@H](C)NCc2cccc(Oc3ccccc3)c2)c1 [Compound 12H]	94	115	114	–	–	–
C[C@@H](NCc1ccc(OCc2ccccc2)cc1)c1cccc2ccccc12 [Compound 12I]	93	111	115	–	–	–
CC(NCc1cccc(OCc2ccccc2)c1)c1cccc2ccccc12 (centres unmarked) [Compound 12J]	113	130	131	–	–	–

SMILES	% activity (33 ng/mL) [%]	% activity (330 ng/mL) [%]	% activity (3300 ng/mL) [%]	% activity	activity at […] (33 ng/mL) [%]	activity at […] (330 ng/mL) [%]
C[C@@H](NCc1ccccc1)c1cccc2ccccc12 [Compound 12L]	–	88	–	45	–	–
COc1cccc(C(C)NCc2ccc(C=Cc3ccccc3)cc2)c1 (centres unmarked) [Compound 12M]	56	86	98	–	–	–
C[C@@H](NCc1ccc(C(C)(C)c2ccccc2)cc1)c1cccc2ccccc12 [Compound 12N]	102	106	115	–	–	–
COc1cccc([C@@H](C)NCc2ccc(C(C)(C)c3ccccc3)cc2)c1 [Compound 12O]	94	117	110	–	–	–
COc1cccc([C@@H](C)NCCCc2ccc(C(C)C)cc2)c1 [Compound 12Y]	46	80	–	–	–	–
CC(NC(C)c1ccc(C(C)(C)C)cc1)c1ccccc1 (centres unmarked) [Compound 13E]	40	94	123	–	–	–
CC(N[C@H](C)c1ccc2ccccc2c1)c1ccc(C(C)(C)C)cc1 (some centres unmarked) [Compound 13F]	85	122	125	–	–	–
C[C@@H](NCc1cccc(Cl)c1)c1cccc2ccccc12 [Compound 13M]	66	92	–	–	–	–
CCc1ccc(CN[C@H](C)c2cccc3ccccc23)cc1 [Compound 13N]	88	114	–	–	–	–
C[C@@H](NCc1ccc(Cl)cc1)c1cccc2ccccc12 [Compound 13O]	94	115	–	–	–	–
Cc1ccc(CN[C@H](C)c2cccc3ccccc23)cc1 [Compound 13P]	83	110	–	–	–	–
C[C@@H](NCc1ccc(Cl)c(Cl)c1)c1cccc2ccccc12 [Compound 13R]	98	132	–	–	–	–
C[C@@H](NCc1ccc(F)cc1)c1cccc2ccccc12 [Compound 13T]	53	90	–	–	–	–
COc1ccc(CN[C@H](C)c2cccc3ccccc23)cc1 [Compound 13U]	79	108	–	–	–	–
C[C@@H](NCc1ccc(N(C)C)cc1)c1cccc2ccccc12 [Compound 13V]	79	110	–	–	–	–
C[C@@H](NCc1ccc([N+](=O)[O-])cc1)c1cccc2ccccc12 [Compound 13W]	71	109	–	–	–	–
COc1cccc([C@@H](C)NC[C@@H](C)c2ccc(CC(C)C)cc2)c1 [Compound 13Y]	2	47	106	–	–	–
CC(C)Cc1ccc(C(C)CNC(C)c2cccc3ccccc23)cc1 (centres unmarked) [Compound 13Z]	22	54	93	–	–	–
Cc1ccc(CNC(C)c2ccc(C(C)(C)C)cc2)cc1 (centres unmarked) [Compound 14B]	11	55	75	–	–	–
CC(NCCc1ccccc1)c1ccc(C(C)(C)C)cc1 (centres unmarked) [Compound 14H]	5	49	112	–	–	–
CCN(CCCc1ccccc1)C(C)c1ccc(C(C)(C)C)cc1 (centres unmarked) [Compound 14I]	11	–	80	45	–	–
CC(c1ccc(C(C)(C)C)cc1)N(C)CCCc1ccccc1 (centres unmarked) [Compound 14J]	6	41	55	–	–	–
CC(C)c1ccc([C@@H](C)N[C@H](C)c2cccc3ccccc23)cc1 [Compound 14L]	–	–	–	–	78	109
C[C@@H](NCCc1ccccc1)c1cccc2ccccc12 [Compound 14N]	55	89	–	–	–	–
